Values joined by “and” are separate entries in the source; they are usually repeats but may differ in a detail not shown here. Identical values can stand only once.
Key:
[1] = xn = mol fraction of the nth substance listed; conditions: 101.3 kPa, Liquid, Falling or rolling sphere viscometry
[2] = Liquid; for viscosity: 101.3 kPa, Falling or rolling sphere viscometry

COC(=O)OC [dimethyl carbonate] + CCCCCCC
[1]
Conditions | viscosity [mPa·s]
293.15 K, x1 = 0.05 | 0.407
293.15 K, x1 = 0.094 | 0.405
293.15 K, x1 = 0.2039 | 0.407
293.15 K, x1 = 0.324 | 0.413
293.15 K, x1 = 0.4062 | 0.422
293.15 K, x1 = 0.5059 | 0.441
293.15 K, x1 = 0.6099 | 0.462
293.15 K, x1 = 0.6987 | 0.488
293.15 K, x1 = 0.8086 | 0.527
293.15 K, x1 = 0.9029 | 0.567
293.15 K, x1 = 0.9504 | 0.594
293.15 K, x1 = 1 | 0.626
298.15 K, x1 = 0.0594 | 0.383
298.15 K, x1 = 0.1204 | 0.384
298.15 K, x1 = 0.2132 | 0.385
298.15 K, x1 = 0.3135 | 0.388
298.15 K, x1 = 0.4018 | 0.397
298.15 K, x1 = 0.4716 | 0.406
298.15 K, x1 = 0.6051 | 0.43
298.15 K, x1 = 0.6946 | 0.452
298.15 K, x1 = 0.8031 | 0.489
298.15 K, x1 = 0.902 | 0.528
298.15 K, x1 = 0.9477 | 0.554
298.15 K, x1 = 1 | 0.585
303.15 K, x1 = 0.0586 | 0.37
303.15 K, x1 = 0.0873 | 0.367
303.15 K, x1 = 0.1996 | 0.368
303.15 K, x1 = 0.299 | 0.375
303.15 K, x1 = 0.4009 | 0.388
303.15 K, x1 = 0.5081 | 0.403
303.15 K, x1 = 0.6069 | 0.426
303.15 K, x1 = 0.6979 | 0.454
303.15 K, x1 = 0.8051 | 0.495
303.15 K, x1 = 0.9069 | 0.518
303.15 K, x1 = 0.9638 | 0.518
303.15 K, x1 = 1 | 0.536
313.15 K, x1 = 0.0649 | 0.33
313.15 K, x1 = 0.1157 | 0.328
313.15 K, x1 = 0.3432 | 0.334
313.15 K, x1 = 0.4378 | 0.341
313.15 K, x1 = 0.5458 | 0.355
313.15 K, x1 = 0.6259 | 0.37
313.15 K, x1 = 0.7191 | 0.393
313.15 K, x1 = 0.8128 | 0.416
313.15 K, x1 = 0.8798 | 0.443
313.15 K, x1 = 0.9536 | 0.475
313.15 K, x1 = 0.9822 | 0.485
313.15 K, x1 = 1 | 0.494

COC(=O)OC [dimethyl carbonate] + CCCCCCCC
[1]
Conditions | viscosity [mPa·s]
293.15 K, x1 = 0.0513 | 0.532
293.15 K, x1 = 0.0997 | 0.524
293.15 K, x1 = 0.2027 | 0.508
293.15 K, x1 = 0.3063 | 0.506
293.15 K, x1 = 0.3994 | 0.502
293.15 K, x1 = 0.5123 | 0.507
293.15 K, x1 = 0.6078 | 0.512
293.15 K, x1 = 0.7137 | 0.524
293.15 K, x1 = 0.8055 | 0.541
293.15 K, x1 = 0.9061 | 0.575
293.15 K, x1 = 0.9516 | 0.596
293.15 K, x1 = 1 | 0.626
298.15 K, x1 = 0.0558 | 0.504
298.15 K, x1 = 0.096 | 0.498
298.15 K, x1 = 0.1488 | 0.489
298.15 K, x1 = 0.2289 | 0.478
298.15 K, x1 = 0.2947 | 0.477
298.15 K, x1 = 0.4216 | 0.474
298.15 K, x1 = 0.4883 | 0.475
298.15 K, x1 = 0.5931 | 0.479
298.15 K, x1 = 0.6867 | 0.491
298.15 K, x1 = 0.7879 | 0.509
298.15 K, x1 = 0.8873 | 0.541
298.15 K, x1 = 0.9502 | 0.561
298.15 K, x1 = 1 | 0.585
303.15 K, x1 = 0.0519 | 0.478
303.15 K, x1 = 0.0827 | 0.474
303.15 K, x1 = 0.1947 | 0.457
303.15 K, x1 = 0.2829 | 0.452
303.15 K, x1 = 0.3948 | 0.45
303.15 K, x1 = 0.4942 | 0.448
303.15 K, x1 = 0.5964 | 0.45
303.15 K, x1 = 0.6983 | 0.46
303.15 K, x1 = 0.7886 | 0.473
303.15 K, x1 = 0.8946 | 0.5
303.15 K, x1 = 0.9545 | 0.52
303.15 K, x1 = 1 | 0.536
313.15 K, x1 = 0.0512 | 0.432
313.15 K, x1 = 0.1005 | 0.43
313.15 K, x1 = 0.186 | 0.419
313.15 K, x1 = 0.301 | 0.413
313.15 K, x1 = 0.4072 | 0.409
313.15 K, x1 = 0.5002 | 0.41
313.15 K, x1 = 0.6042 | 0.417
313.15 K, x1 = 0.709 | 0.43
313.15 K, x1 = 0.7993 | 0.446
313.15 K, x1 = 0.8465 | 0.459
313.15 K, x1 = 0.9524 | 0.485
313.15 K, x1 = 1 | 0.494

CCCCCCC [heptane]
[2]
Conditions | viscosity
293.15 K | 0.411 mPa·s
298.15 K | 0.388 mPa·s
303.15 K | 0.37 mPa·s and 0.375 mPa·s
313.15 K | 0.334 mPa·s

Conditions | mass density [kg/m3]
[2], 298.15 K, 101.33 kPa, Vibrating tube method | 679.4

CCCCCCC [heptane] + CCOC(=O)OCC
[1], x2 = 0
Conditions | viscosity [mPa·s]
293.15 K | 0.411
298.15 K | 0.388
303.15 K | 0.375
313.15 K | 0.334

CCCCCCC [heptane] + COC(=O)OC
[1], x2 = 0
Conditions | viscosity [mPa·s]
293.15 K | 0.411
298.15 K | 0.388
303.15 K | 0.37
313.15 K | 0.334

CCCCCC [hexane] + CCOC(=O)OCC
[1], x2 = 0
Conditions | viscosity [mPa·s]
293.15 K | 0.313
298.15 K | 0.301
303.15 K | 0.282
313.15 K | 0.258

CCCCCC [hexane] + COC(=O)OC
[1], x2 = 0
Conditions | viscosity [mPa·s]
293.15 K | 0.313
298.15 K | 0.301
303.15 K | 0.282
313.15 K | 0.258

CCCCCCCC [octane] + CCOC(=O)OCC
[1], x2 = 0
Conditions | viscosity [mPa·s]
293.15 K | 0.545
298.15 K | 0.513
303.15 K | 0.484
313.15 K | 0.434

CCCCCCCC [octane] + COC(=O)OC
[1], x2 = 0
Conditions | viscosity [mPa·s]
293.15 K | 0.545
298.15 K | 0.513
303.15 K | 0.484
313.15 K | 0.434

Reference: the NIST ThermoML archive (doi:10.1021/je020131a)
